Results: PubChem BioAssay (NCI)
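Dose response: 5 concentrations. Exposure: 48 h. Format: 96-well plates. Endpoint: linear interpolation; highest concentration if not reached. GI50 is the concentration that inhibits growth by half. At the TGI there is no net growth.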

How the values were obtained:
Assay in all cases: NCI anticancer screen, dose series, 48 h
A498 renal = system: A498 renal
BT-549 breast = system: BT-549 breast
CCRF-CEM leukemia = system: CCRF-CEM leukemia
COLO 205 colon = system: COLO 205 colon
DU-145 prostate = system: DU-145 prostate
EKVX NSCLC = system: EKVX NSCLC
HCT-15 colon = system: HCT-15 colon
HL-60(TB) leukemia = system: HL-60(TB) leukemia
HOP-62 NSCLC = system: HOP-62 NSCLC
HOP-92 NSCLC = system: HOP-92 NSCLC
HS 578T breast = system: HS 578T breast
HT29 colon = system: HT29 colon
IGROV1 ovarian = system: IGROV1 ovarian
K-562 leukemia = system: K-562 leukemia
KM12 colon = system: KM12 colon
LOX IMVI melanoma = system: LOX IMVI melanoma
MALME-3M melanoma = system: MALME-3M melanoma
MCF7 breast = system: MCF7 breast
MDA-MB-231 breast = system: MDA-MB-231 breast
MDA-MB-435 = system: MDA-MB-435
MOLT-4 leukemia = system: MOLT-4 leukemia
NCI-H226 lung = system: NCI-H226 lung
NCI-H23 lung = system: NCI-H23 lung
NCI-H460 lung = system: NCI-H460 lung
NCI-H522 lung = system: NCI-H522 lung
NCI/ADR-RES ovarian = system: NCI/ADR-RES ovarian
OVCAR-4 ovarian = system: OVCAR-4 ovarian
OVCAR-8 ovarian = system: OVCAR-8 ovarian
RPMI-8226 leukemia = system: RPMI-8226 leukemia
RXF 393 renal = system: RXF 393 renal
SF-268 CNS = system: SF-268 CNS
SF-295 CNS = system: SF-295 CNS
SF-539 CNS = system: SF-539 CNS
SK-MEL-2 melanoma = system: SK-MEL-2 melanoma
SK-MEL-5 melanoma = system: SK-MEL-5 melanoma
SK-OV-3 ovarian = system: SK-OV-3 ovarian
SN12C renal = system: SN12C renal
SNB-19 CNS = system: SNB-19 CNS
SNB-75 CNS = system: SNB-75 CNS
SR leukemia = system: SR leukemia
SW-620 colon = system: SW-620 colon
T-47D breast = system: T-47D breast
U251 CNS = system: U251 CNS
UACC-62 melanoma = system: UACC-62 melanoma
786-0 renal = system: 786-0 renal
A549 NSCLC = system: A549 NSCLC
ACHN renal = system: ACHN renal
CAKI-1 renal = system: CAKI-1 renal
HCC-2998 colon = system: HCC-2998 colon
HCT-116 colon = system: HCT-116 colon
M14 melanoma = system: M14 melanoma
OVCAR-3 ovarian = system: OVCAR-3 ovarian
OVCAR-5 ovarian = system: OVCAR-5 ovarian
PC-3 prostate = system: PC-3 prostate
SK-MEL-28 melanoma = system: SK-MEL-28 melanoma
TK-10 renal = system: TK-10 renal
UACC-257 melanoma = system: UACC-257 melanoma
UO-31 renal = system: UO-31 renal

## CCCC(=O)Nc1cc(/C=C/C(=O)N2CC(CCl)c3c2cc(OC(C)=O)c2[nH]cc(C)c32)n(C)c1 (centres undefined)
A498 renal
  TGI: 0.667 nM
BT-549 breast
  TGI: 2.27 nM
CCRF-CEM leukemia
  TGI: 0.161 nM
COLO 205 colon
  TGI: 0.0432 nM
DU-145 prostate
  TGI: 4.53 nM
EKVX NSCLC
  TGI: 6.65 nM
HCT-15 colon
  TGI: > 134 nM
HL-60(TB) leukemia
  TGI: 1.01 nM
HOP-62 NSCLC
  TGI: 3.89 nM
HOP-92 NSCLC
  TGI: 0.146 nM
HS 578T breast
  TGI: 1.93 nM
HT29 colon
  TGI: > 250 nM
IGROV1 ovarian
  TGI: > 250 nM
K-562 leukemia
  TGI: > 197 nM
KM12 colon
  TGI: 2.47 nM
LOX IMVI melanoma
  TGI: > 250 nM
MALME-3M melanoma
  TGI: 0.0955 nM
MCF7 breast
  TGI: > 75.9 nM
MDA-MB-231 breast
  TGI: > 250 nM
MDA-MB-435
  TGI: 0.686 nM
MOLT-4 leukemia
  TGI: 4.36 nM
NCI-H226 lung
  TGI: 0.748 nM
NCI-H23 lung
  TGI: 0.0872 nM
NCI-H460 lung
  TGI: 0.419 nM
NCI-H522 lung
  TGI: 0.0426 nM
NCI/ADR-RES ovarian
  TGI: 12.1 nM
OVCAR-4 ovarian
  TGI: 21.3 nM
OVCAR-8 ovarian
  TGI: 0.858 nM
RPMI-8226 leukemia
  TGI: 7.62 nM
RXF 393 renal
  TGI: < 0.025 nM
SF-268 CNS
  TGI: < 0.025 nM
SF-295 CNS
  TGI: 0.311 nM
SF-539 CNS
  TGI: 0.107 nM
SK-MEL-2 melanoma
  TGI: 0.121 nM
SK-MEL-5 melanoma
  TGI: 0.0584 nM
SK-OV-3 ovarian
  TGI: 69.1 nM
SN12C renal
  TGI: 5.19 nM
SNB-19 CNS
  TGI: 43.6 nM
SNB-75 CNS
  TGI: < 0.025 nM
SR leukemia
  TGI: > 250 nM
SW-620 colon
  TGI: > 250 nM
T-47D breast
  TGI: 68.9 nM
U251 CNS
  TGI: 105 nM
UACC-62 melanoma
  TGI: 0.0423 nM

## Cc1nc2sc(C(=O)Nc3cccc(Cl)c3C)c(N)c2cc1C(O)c1ccccc1 (centres undefined)
786-0 renal
  GI50: 66.7 nM
  TGI: 9510 nM
A498 renal
  GI50: 15.8 nM
  TGI: 59 nM
A549 NSCLC
  GI50: 61.4 nM
  TGI: > 50100 nM
ACHN renal
  GI50: 88.1 nM
  TGI: 14800 nM
BT-549 breast
  GI50: 124 nM
  TGI: 3000 nM
CAKI-1 renal
  GI50: 48.7 nM
  TGI: 8460 nM
CCRF-CEM leukemia
  GI50: 39.2 nM
  TGI: > 100000 nM
COLO 205 colon
  GI50: 66.7 nM
  TGI: 1370 nM
DU-145 prostate
  GI50: 45.4 nM
  TGI: 8500 nM
EKVX NSCLC
  GI50: 268 nM
  TGI: 21400 nM
HCC-2998 colon
  GI50: 106 nM
  TGI: 2360 nM
HCT-116 colon
  GI50: 40.4 nM
  TGI: 10900 nM
HCT-15 colon
  GI50: 33 nM
  TGI: 10500 nM
HL-60(TB) leukemia
  GI50: 28.9 nM
  TGI: 133 nM
HOP-62 NSCLC
  GI50: 49.7 nM
  TGI: 16100 nM
HOP-92 NSCLC
  GI50: 2310 nM
  TGI: 14200 nM
HS 578T breast
  GI50: 23.9 nM
  TGI: 497 nM
HT29 colon
  GI50: 35.5 nM
  TGI: 8350 nM
IGROV1 ovarian
  GI50: 53.2 nM
  TGI: 12700 nM
K-562 leukemia
  GI50: 30.2 nM
  TGI: > 48600 nM
KM12 colon
  GI50: 37.2 nM
  TGI: 5220 nM
LOX IMVI melanoma
  GI50: 59.9 nM
  TGI: 10900 nM
M14 melanoma
  GI50: 29.1 nM
  TGI: 13100 nM
MALME-3M melanoma
  GI50: 53.6 nM
  TGI: 18500 nM
MCF7 breast
  GI50: 33.2 nM
  TGI: 11300 nM
MDA-MB-231 breast
  GI50: 83.4 nM
  TGI: 6950 nM
MOLT-4 leukemia
  GI50: 67.3 nM
  TGI: 19700 nM
NCI-H226 lung
  GI50: 1190 nM
  TGI: 22800 nM
NCI-H23 lung
  GI50: 63.4 nM
  TGI: 12900 nM
NCI-H460 lung
  GI50: 34.7 nM
  TGI: 486 nM
NCI-H522 lung
  GI50: 27.8 nM
  TGI: 1770 nM
NCI/ADR-RES ovarian
  GI50: 31.8 nM
  TGI: 1640 nM
OVCAR-3 ovarian
  GI50: 35.1 nM
  TGI: 1140 nM
OVCAR-4 ovarian
  GI50: 246 nM
  TGI: 26700 nM
OVCAR-5 ovarian
  GI50: 140 nM
  TGI: 46500 nM
OVCAR-8 ovarian
  GI50: 51.2 nM
  TGI: 35300 nM
PC-3 prostate
  GI50: 43.9 nM
  TGI: 24400 nM
RPMI-8226 leukemia
  GI50: 38.8 nM
  TGI: 3050 nM
SF-268 CNS
  GI50: 318 nM
  TGI: 11700 nM
SF-295 CNS
  GI50: 33.3 nM
  TGI: 5080 nM
SF-539 CNS
  GI50: 25.3 nM
  TGI: 80.5 nM
SK-MEL-2 melanoma
  GI50: 75.4 nM
  TGI: 12600 nM
SK-MEL-28 melanoma
  GI50: 1600 nM
  TGI: 23100 nM
SK-MEL-5 melanoma
  GI50: 52.8 nM
  TGI: 1110 nM
SK-OV-3 ovarian
  GI50: 69.7 nM
  TGI: 33400 nM
SN12C renal
  GI50: 67 nM
  TGI: 6730 nM
SNB-19 CNS
  GI50: 60.4 nM
  TGI: 29100 nM
SR leukemia
  GI50: 21 nM
  TGI: 16600 nM
SW-620 colon
  GI50: 33.1 nM
  TGI: 15400 nM
T-47D breast
  GI50: 39.6 nM
  TGI: 57600 nM
TK-10 renal
  GI50: 2040 nM
  TGI: 25600 nM
U251 CNS
  GI50: 39 nM
  TGI: 13800 nM
UACC-257 melanoma
  GI50: 1270 nM
  TGI: 22900 nM
UACC-62 melanoma
  GI50: 87 nM
  TGI: 12000 nM
UO-31 renal
  GI50: 98.5 nM
  TGI: 12600 nM
